Test results as given in publication PMC7959846, “Block of Voltage-Gated Sodium Channels by Atomoxetine in a State- and Use-dependent Manner” (Frontiers in Pharmacology, 2021).
“And” between values parts separate entries of the source, which are not always exact repeats. Equal entries are not always repeated.

Tests used:
WCW-mutant = tested on: WCW-mutant; parameters: method as in Poulin et al., 2014; conditions: ref Poulin et al., 2014; cited from earlier work
F1760C = tested on: F1760C; parameters: method as in Poulin et al., 2014; conditions: anaesthetic binding site; ref Poulin et al., 2014; cited from earlier work
hNav1.5 [1] = target: T1, hNav1.5 (Homo sapiens, UniProt Q14524); parameters: expressed in transfected cells; host or cells: tsA201 (HEK-293 derivative); method as in Poulin et al., 2014; conditions: ref Poulin et al., 2014; cited from earlier work
T1 sequence (Q14524 whole entry): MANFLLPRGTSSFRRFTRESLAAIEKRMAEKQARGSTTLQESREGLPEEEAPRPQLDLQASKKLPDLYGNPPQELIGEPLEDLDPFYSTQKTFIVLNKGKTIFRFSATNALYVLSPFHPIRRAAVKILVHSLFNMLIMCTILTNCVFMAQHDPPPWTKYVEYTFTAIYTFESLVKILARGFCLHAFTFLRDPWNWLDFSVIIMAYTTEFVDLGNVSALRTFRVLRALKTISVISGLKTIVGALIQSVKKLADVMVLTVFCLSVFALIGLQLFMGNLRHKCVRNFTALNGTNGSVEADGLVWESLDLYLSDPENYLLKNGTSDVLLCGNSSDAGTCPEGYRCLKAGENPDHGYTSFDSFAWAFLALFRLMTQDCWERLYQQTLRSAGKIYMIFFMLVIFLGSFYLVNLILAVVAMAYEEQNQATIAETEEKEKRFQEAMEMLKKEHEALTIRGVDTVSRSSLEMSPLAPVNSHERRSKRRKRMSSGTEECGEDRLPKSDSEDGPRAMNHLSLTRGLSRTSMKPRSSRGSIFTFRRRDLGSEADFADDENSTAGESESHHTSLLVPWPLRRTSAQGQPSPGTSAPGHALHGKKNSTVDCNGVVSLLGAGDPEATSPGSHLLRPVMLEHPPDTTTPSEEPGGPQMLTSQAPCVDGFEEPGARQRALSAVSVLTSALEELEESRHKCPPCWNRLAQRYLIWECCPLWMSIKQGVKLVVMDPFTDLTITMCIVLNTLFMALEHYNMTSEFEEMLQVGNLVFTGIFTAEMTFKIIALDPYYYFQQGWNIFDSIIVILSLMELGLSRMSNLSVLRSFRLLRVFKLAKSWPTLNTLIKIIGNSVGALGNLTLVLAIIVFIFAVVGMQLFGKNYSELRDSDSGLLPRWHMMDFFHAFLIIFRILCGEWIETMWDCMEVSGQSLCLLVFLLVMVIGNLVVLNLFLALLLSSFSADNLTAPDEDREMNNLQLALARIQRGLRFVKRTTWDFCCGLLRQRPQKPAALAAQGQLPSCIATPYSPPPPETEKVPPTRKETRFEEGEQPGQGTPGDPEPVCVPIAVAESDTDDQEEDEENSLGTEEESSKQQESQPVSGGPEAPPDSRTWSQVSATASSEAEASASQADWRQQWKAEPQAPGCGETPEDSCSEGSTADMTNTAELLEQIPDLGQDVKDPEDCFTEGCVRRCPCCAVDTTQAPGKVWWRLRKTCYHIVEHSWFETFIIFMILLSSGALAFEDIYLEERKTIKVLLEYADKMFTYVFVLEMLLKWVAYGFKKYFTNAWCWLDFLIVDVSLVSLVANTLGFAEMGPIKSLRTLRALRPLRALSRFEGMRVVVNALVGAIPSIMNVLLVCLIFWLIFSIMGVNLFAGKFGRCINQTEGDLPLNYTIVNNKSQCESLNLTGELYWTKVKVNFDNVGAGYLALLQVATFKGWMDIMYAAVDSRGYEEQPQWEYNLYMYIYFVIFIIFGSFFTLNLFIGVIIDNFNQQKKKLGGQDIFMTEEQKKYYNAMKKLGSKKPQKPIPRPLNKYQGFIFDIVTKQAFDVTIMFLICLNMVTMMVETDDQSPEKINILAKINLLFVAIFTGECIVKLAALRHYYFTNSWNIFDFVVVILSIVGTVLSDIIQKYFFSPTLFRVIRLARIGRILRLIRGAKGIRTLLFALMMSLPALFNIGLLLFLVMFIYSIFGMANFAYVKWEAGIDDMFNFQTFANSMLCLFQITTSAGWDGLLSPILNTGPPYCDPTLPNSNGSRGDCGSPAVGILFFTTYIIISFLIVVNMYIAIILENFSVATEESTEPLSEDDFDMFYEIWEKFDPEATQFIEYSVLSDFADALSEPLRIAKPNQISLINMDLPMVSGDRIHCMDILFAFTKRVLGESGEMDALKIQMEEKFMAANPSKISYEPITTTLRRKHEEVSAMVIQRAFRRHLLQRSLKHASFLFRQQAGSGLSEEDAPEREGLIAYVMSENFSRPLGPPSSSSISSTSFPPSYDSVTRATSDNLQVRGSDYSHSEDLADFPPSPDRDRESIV

hNav1.5 [2] = target: T1, hNav1.5; test: Slow inactivation (10 s conditioning prepulse); conditions: slow inactivation fit (Eq. 5); for V50_1: N = 5
Description: Voltage dependence of activation was calculated in two steps: First, changes in driving force owing to the different test potentials were considered by calculating the conductance g according to g = I/V−ENa (2) Thereafter, normalized data were fitted with a Boltzmann equation of the form: g/gmax= 1/1+e^(V50 − V/k) (3) Voltage dependence of fast inactivation were fit using a Boltzmann equation of the form: I/Imax= 1/1+ e^(V − V50/k) (4) In case of slow inactivation Eq. 4 was extended by a second term and the additional parameter (S) which considers the steady-state level of the incomplete inactivation. I/Imax=(1−S)(a1/1+ e^(V− V501/k1)+ a2/1+ e^(V− V502/k2))+ S (5) Abbreviations used for voltage-dependent parameters: V and V50i are the actual membrane potentials and the potentials at which half maximal current (I)/conductance (g) occur, respectively. ENa indicates the reversal potential which was experimentally determined for each cell. The slope factors are given by ki and the relative amount of the individual terms are represented by ai. Constraint throughout: ∑i=1nai=1 .
In a next set of experiments, we directly investigated for a possible interaction with the slow inactivated state. To this end, similar experiments as shown in Figure 4 were conducted with the following deviations: the duration of the conditioning prepulse was set to 10 s, and a recovery period (100 ms) at −160 mV was inserted immediately before the test pulse to eliminate or minimize the contribution from fast-inactivation. […] Another hallmark for an interaction with the slow inactivated state is an ongoing increase in inhibition in the potential range (V50_2) where slow inactivation is expected to occur. In order to evaluate this we renormalized the data in the presence of atomoxetine with their respective control (Figure 7B).
FIGURE 7 Interaction with the slow-inactivated state (A) Infrequent (interval: 30 s) channel activations by step depolarisations to −20 mV were elicited after long lasting (10 s) conditioning prepulses to different potentials (inset). A short (100 ms) recovery period at −160 mV was inserted immediately before the test pulse. Data of normalized peak currents are plotted vs. the prepulse potential. Solid lines are fits according to Eq. 5 for control (open squares) and atomoxetine (3 µM) (filled symbols). […] (B) Plot of renormalized data was obtained by dividing the drug values by control values.

hNav1.5 [3] = target: T1, hNav1.5; test: Use-dependent interaction (high frequency stimulation trains); conditions: for relative current amplitude of the 50th pulse related to the first pulse: 1 ms test pulse; for remaining current amplitude (use-dependence, pulse duration series): 10 Hz (Figure 9B)
Description: To investigate whether atomoxetine also interacts with the open channel, we first tested for a possible use-dependency. All these experiments were carried out at a holding potential of −140 mV and a test pulse to −20 mV with its duration set to 1 ms. This short activation time was chosen to minimize the time the channels spent in the inactivated state. After establishing stable baseline values using infrequent activations every 5 s (0.2 Hz) a train of high frequency stimulation (1, 3 10 Hz) was started. For evaluation, the peak current amplitude of each pulse was divided by the amplitude of the first response of the high frequency stimulation train. […] For quantification, the remaining current amplitudes of the 50th pulse were related to the first pulse. […] In order to analyse further if atomoxetine prefers an interaction with the open or fast inactivated state, we increased the test pulse duration up to a factor of 20.
FIGURE 9 Analysis for use-dependence at a pulsing frequency of 10 Hz (A) After establishing stable control responses (activations every 5 s), atomoxetine was preincubated for 20 s before test pulses (1 ms) were applied at a frequency of 10 Hz. […] The amplitudes which were obtained from the high frequency stimulation are related to the first pulse of each train.

hNav1.5 [4] = target: T1, hNav1.5; test: Voltage dependence of activation, whole-cell patch clamp; format: cell-based; parameters: expressed in transfected cells; host or cells: tsA201 (HEK-293 derivative)
hNav1.5 [5] = target: T1, hNav1.5; test: Voltage dependence of fast inactivation (500 ms prepulse); format: cell-based; parameters: expressed in transfected cells; host or cells: tsA201 (HEK-293 derivative); conditions: for net drug-induced shift of half maximal fast inactivation (signed): N = 5
Description: Constraint throughout: ∑i=1nai=1 .
For establishing inactivation curves, the membrane potential was stepped to different prepulse potentials (from −140 to −45 mV; increment 5 mV) for 500 ms before channel activations were carried out by depolarizations to −20 mV. For estimation of inactivation parameters, the normalized peak currents were plotted vs. the prepulse potentials. Inactivation curves, characterized by inactivation midpoints and the curve slope were obtained by data fitting using Eq. 4. […] After a second control, atomoxetine was applied at a concentration of 3 and 10 µM (Figure 4A) For final evaluation of drug effects, first the endogenous shift was estimated for each cell individually by the difference between the two controls. […] We used a cell-specific endogenous shift instead of a global shift, as the endogenous shift is highly variable between individual cells.
FIGURE 4 Voltage dependence of fast inactivation (A) Data of a representative measurement series of normalized peak currents in the absence and presence of atomoxetine are shown. Solid lines represent fits according to Eq. 4.

hNav1.5 [6] = target: T1, hNav1.5; test: Recovery from inactivation (double pulse protocols); format: cell-based; parameters: expressed in transfected cells; host or cells: tsA201 (HEK-293 derivative)
Description: Current amplitudes were normalized to the maximum peak amplitude of INa in the absence and presence of atomoxetine. Recovery time constants were estimated from double or triple exponential fits according to: I/Imax = 1− a1*e^(−t/τ1) −a2*e^(−t/τ2)− a3*e^(−t/τ3) (10)
Recovery from inactivation was estimated with double pulse protocols using two different durations for the inactivating pulse: 500 ms and 10 s. The test pulse was applied after a variable time spent at the recovery potential of −140 mV (inset Figure 8). Using the short inactivation time of 500 ms, recovery occurred with two time constants. In the absence of atomoxetine about 90% of the channels recovered with a fast time constant (τ 1 = 2.2 ± 0.2 ms), representing recovering from fast inactivation. The remainder recovered with a slower time constant (τ 2 = 37.7 ± 15.6 ms), probably representing recovery from slow inactivation. In the presence of atomoxetine the time constant of the fast component was hardly extended whereas those of the slow time constant was prolongated with little or no change in the relative amount of the two components (Figure 8A, Table 2). […] Using an inactivation time of 10 s, recovery has to be fitted with triple exponential functions, separating the recovery process in a fast, intermediate and a slow component (Figure 8B). In the presence of atomoxetine a profound increase in all time constants resulted. Moreover, the component of the fast time constant decreased and that of the slow component increased in a concentration dependent manner while the amount of the intermediate component stayed almost constant (Table 3).
FIGURE 8 Recovery from inactivation (A) The relative amount of available channels after increasing duration of recovery at −140 mV is illustrated. Inactivation was performed at −20 mV for 500 ms. The pulse protocol is illustrated by the inset. Interval between individual measurements was 10 s and atomoxetine was applied at 3 and 10 µM. Solid lines represent fits with two exponential functions according to Eq. 10. (B) Otherwise identical protocol as in (A) but with the inactivation time set to 10 s. For data fitting, three exponentials were required. For fit parameters see Table 2, N = 5.

hNav1.5 [7] = target: T1, hNav1.5; test: Interaction with the inactivated state: steady-state concentration-response relationship
Description: Concentration-inhibition curves for the estimation of Kr (IC50 at −140 mV; Figure 2) or Kapp (Figure 6) were fitted to the Hill equation ID/IC= 1/1+([D]/IC50)^n (1) ID and IC are the current amplitudes in the presence and absence of the drug (D). [D] is the concentration of the drug. IC50 represents the concentration of the blocker that causes 50% inhibition and n is the Hill coefficient.
The affinity to the inactivated state (Ki) was calculated according to ([Bean et al., 1983]) as: 1/Kapp= h/Kr+ (1−h)/Ki (6) Kapp is the apparent affinity estimated at a selected membrane potential at which the amount of non-inactivated channels is given by h (estimated from the corresponding inactivation curve).
Activations were repeated several times at each concentration to achieve steady-state condition (Figure 6A). The holding potential was chosen individually for each cell to be around half maximal inactivation according to a preceding estimation of availability. Before the test pulse a short recovery (100 ms at −160 mV) was carried out (inset to Figure 6A). From the concentration relationship apparent half maximal effective concentrations (Kapp) were calculated using Eq. 1 (Figure 6B). The affinity for the inactivated channel was then calculated according to Eq. 6 which considers the varying amount of inactivated channels in individual experiments.
Activations were carried out every 30 s using a holding potential at which the channels were partly inactivated (relative amount of available channels in this experiment: h = 0.81). Immediately before the activations a short recovery (100 m s) at −160 mV was intercalated (inset). Activations were repeated at each condition until a near stable current amplitude was achieved. (B) The apparent IC50 (IC50app) was calculated from the concentration-dependent decline of the current amplitudes. The affinity to the inactivated state was calculated considering the current amount of available channels according to Eq. 6.

hNav1.5 [8] = target: T1, hNav1.5; test: Block development, interaction with the inactivated state: kinetic parameters (double-pulse protocol); conditions: for remaining current at the longest inactivation time: prepulse −20 mV up to 32 s
Description: The time constant (τ) of block development for the different concentrations of atomoxetine was estimated by single exponential fits of the form: I/Imax = S+ a1*e^(−t/τ1) (7) t denotes the time, a is the fraction of channels which is blocked, and S represents the residual current.
Association (kon in µM^−1s^−1) and dissociation rates (koff in s^−1) were estimated from the slope and the y-intercept of a linear regression where the inverse of the fast time constants (1/τ) was plotted vs. the drug concentration [D] […] 1/τ= koff+kon*[D] (8) The affinity for the inactivated state (Ki) was calculated according to: Ki= koff/kon (9)
Instead of this, we employed another double-pulse protocol in order to determine the time dependence of the interaction of atomoxetine with the inactivated state. The experimental scheme consisted of a conditioning prepulse to −20 mV for a variable duration (range: 0.002–32 s), a short recovery for 100 ms at −140 mV, followed by the test pulse to −20 mV (inset to Figure 5A). […] For estimation of rate constants the inverse of the time constants (1/τ) were plotted vs. the concentration of atomoxetine (Figure 5C).
The pulse protocol (inset) was applied in intervals of 20 s. The peak currents of the test pulse were normalized to the peak amplitude of the prepulse and plotted vs. its duration. Solid lines represent fits of single exponential functions to data obtained for control (open squares) or different concentrations of atomoxetine (B) Data normalized with respect to control (C) The inverse of the time constants of individual cells were plotted vs. the concentration of atomoxetine. […] N = 5.

hNav1.5 [9] = target: T1, hNav1.5; test: Tonic block of hNav1.5 channels (resting state, holding potential −140 mV), whole-cell patch clamp in tsA201 cells; conditions: N = 5
Description: The tsA201 cell line is a derivative of the human embryonic kidney cell line HEK-293 (ATCC#CRL1537, Merck KGaA, Darmstadt, Germany). tsA201 cells were cultured at 37°C in a humidified atmosphere at 95% air and 5% CO2 in MEM (minimum essential medium, Gibco, Eggenstein, Germany) supplemented with 50 U/ml penicillin, 50 μg/ml streptomycin (Gibco), 2 mM L-glutamine (Boehringer, Mannheim, Germany), and 10% fetal calf serum (Gibco). The cells were grown on polyornithine-coated culture dishes to 40% confluency and transfected using the TransFectin LipidReagent kit (Bio-Rad, München, Germany).
Briefly, tsA201 cells were used for experiments 24–48 h after transfection. Membrane currents were recorded in the whole-cell recording mode using an EPC-9 amplifier and Patchmaster software (v2x73; HEKA, Lambrecht, Germany ([Hamill et al., 1981])). Before recording, cells were rinsed twice with an extracellular standard solution containing (in mM): 140 NaCl, 5 KCl, 1.5 CaCl2, 10 glucose and 12 HEPES; adjusted to a final pH of 7.3. Patch pipettes were drawn from borosilicate glass with tip resistances of about 2 MΩ when filled with (in mM): 125 CsF, 10 NaF, 1 MgCl2, 10 EGTA, 10 HEPES; adjusted to a final pH of 7.2. To improve sealing, tips were briefly dipped into 2% dimethylsilane dissolved in dichloromethane. Unless otherwise stated, cells were held at a holding potential of −140 mV from which channel activation was elicited by brief depolarizing pulses to −20 mV of 5 ms duration. To minimize voltage errors, the series resistance was compensated up to 80%. Cells with currents larger than 6 nA were excluded from evaluation.
The medium in the dish (1.5 ml) was continuously exchanged using a "global" bath perfusion with the inflow set to 4.5 ml/min and the outflow removing any excess fluid. Reagents were applied locally to the cells by the L/M-SPS-8 superfusion system (List, Darmstadt, Germany). Switching between the 8 channels of the superfusion system was controlled by magnetic valves. The local inlet (tip of an eight-barrelled pipette) was positioned at a distance of 50–100 μm upstream and the local outlet at about 300 μm downstream of the patch pipette. A constant flow rate of control and test solutions (1 ml/min) was achieved by means of a pressure control system (MPCU-3, Lorenz, Göttingen, Germany). The time of solution exchange was estimated from the changes in the liquid junction potential to be about 1 ms. If not otherwise stated, drugs were preapplied for 20 s before starting the experiments.
Concentration-inhibition curves for the estimation of Kr (IC50 at −140 mV; Figure 2) or Kapp (Figure 6) were fitted to the Hill equation ID/IC= 1/1+([D]/IC50)^n (1) ID and IC are the current amplitudes in the presence and absence of the drug (D). [D] is the concentration of the drug. […]

CNCCC(Oc1ccc(C(F)(F)F)cc1)c1ccccc1 (stereo not shown) [fluoxetine]
ratio for the interaction with the resting state (peak current) vs. open channel (late current) (WCW-mutant): 3 fold | ratio in affinity between F1760C and wildtype (F1760C): about 2 fold | ratio of affinity at holding potential −140 mV (resting state) versus −90 mV (hNav1.5 [1]): less than 10 fold

CNCC[C@@H](Oc1ccccc1C)c1ccccc1 [atomoxetine]
V50_2 (hNav1.5 [2]; 3 µM): −65.5 ± 2.8 mV | a1 (hNav1.5 [2]; 3 µM): 37.5 ± 18.7% | k1 (hNav1.5 [2]; 3 µM): 5.2 ± 0.4 mV | k2 (hNav1.5 [2]; 3 µM): 31.8 ± 1.9 mV | V50_1 (hNav1.5 [2]; 3 µM): −101.3 ± 0.3 mV | V50_2 (hNav1.5 [2]; 10 µM): −102.7 ± 3.9 mV | a1 (hNav1.5 [2]; 10 µM): 71.1 ± 19.7% | k1 (hNav1.5 [2]; 10 µM): 5.9 ± 0.2 mV | k2 (hNav1.5 [2]; 10 µM): 34.2 ± 4.7 mV | V50_1 (hNav1.5 [2]; 10 µM): −107.7 ± 0.2 mV | relative current amplitude of the 50th pulse related to the first pulse (hNav1.5 [3]; 1 Hz, 1 µM atomoxetine): 0.96 ± 0.01 | relative current amplitude of the 50th pulse related to the first pulse (hNav1.5 [3]; 1 Hz, 3 µM atomoxetine): 0.89 ± 0.05 | relative current amplitude of the 50th pulse related to the first pulse (hNav1.5 [3]; 1 Hz, 10 µM atomoxetine): 0.69 ± 0.09 | relative current amplitude of the 50th pulse related to the first pulse (hNav1.5 [3]; 3 Hz, 1 µM atomoxetine): 0.95 ± 0.02 | relative current amplitude of the 50th pulse related to the first pulse (hNav1.5 [3]; 3 Hz, 3 µM atomoxetine): 0.85 ± 0.07 | relative current amplitude of the 50th pulse related to the first pulse (hNav1.5 [3]; 3 Hz, 10 µM atomoxetine): 0.61 ± 0.09 | relative current amplitude of the 50th pulse related to the first pulse (hNav1.5 [3]; 10 Hz, 3 µM atomoxetine): 0.79 ± 0.03 | relative current amplitude of the 50th pulse related to the first pulse (hNav1.5 [3]; 10 Hz, 10 µM atomoxetine): 0.48 ± 0.07 | remaining current amplitude (use-dependence, pulse duration series) (hNav1.5 [3]; activation time 1 ms, 10 µM atomoxetine): 0.54 ± 0.03 | remaining current amplitude (use-dependence, pulse duration series) (hNav1.5 [3]; activation time 5 ms, 10 µM atomoxetine): 0.43 ± 0.03 | remaining current amplitude (use-dependence, pulse duration series) (hNav1.5 [3]; activation time 20 ms, 10 µM atomoxetine): 0.37 ± 0.09 | slope of the activation curve (hNav1.5 [4]; 3 µM atomoxetine): 6.6 ± 0.6 mV | midpoint of the activation curve (half maximal activation) (hNav1.5 [4]; 3 µM atomoxetine, control −52.6 ± 3.5 mV): −54.5 ± 3.9 mV | midpoint of the activation curve (hNav1.5 [4]; 10 µM atomoxetine): −55.5 ± 4.1 mV | slope of the activation curve (hNav1.5 [4]; 10 µM atomoxetine): 6.9 ± 0.6 mV | net shift in positive direction of fast inactivation midpoint (hNav1.5 [5]; 3 µM atomoxetine, 500 ms prepulse, corrected for endogenous shift): 0.3 mV | net drug-induced shift of half maximal fast inactivation (signed) (hNav1.5 [5]; 3 µM atomoxetine): +0.3 mV | negative shift of fast inactivation midpoint (net) (hNav1.5 [5]; 10 µM atomoxetine, 500 ms prepulse, corrected for endogenous shift): 0.9 mV | net drug-induced shift of half maximal fast inactivation (signed) (hNav1.5 [5]; 10 µM atomoxetine): −0.9 mV | τ 1 (%) relative amount of component (hNav1.5 [6]; 3 µM, inactivation 10 s): 39.7 ± 2.2% | τ 1 (recovery time constant) (hNav1.5 [6]; 3 µM, inactivation 10 s): 5.8 ± 0.7 ms | τ 2 (%) relative amount of component (hNav1.5 [6]; 3 µM, inactivation 10 s): 22.7 ± 1.0% | τ 2 (recovery time constant) (hNav1.5 [6]; 3 µM, inactivation 10 s): 139 ± 37.2 ms | τ 3 (recovery time constant) (hNav1.5 [6]; 3 µM, inactivation 10 s): 3,524 ± 377 ms | τ 1 (%) relative amount of component (hNav1.5 [6]; 3 µM, inactivation 500 ms): 90.3 ± 2.0% | τ 2 (recovery time constant) (hNav1.5 [6]; 3 µM, inactivation 500 ms): 191.7 ± 74.2 ms | τ 1 (recovery time constant) (hNav1.5 [6]; 3 µM, inactivation 500 ms, recovery at −140 mV): 3.1 ± 0.2 ms | τ 1 (%) relative amount of component (hNav1.5 [6]; 10 µM, inactivation 10 s): 15.0 ± 1.6% | τ 1 (recovery time constant) (hNav1.5 [6]; 10 µM, inactivation 10 s): 12.4 ± 0.3 ms | τ 2 (%) relative amount of component (hNav1.5 [6]; 10 µM, inactivation 10 s): 17.2 ± 2.9% | τ 2 (recovery time constant) (hNav1.5 [6]; 10 µM, inactivation 10 s): 417 ± 152 ms | τ 3 (recovery time constant) (hNav1.5 [6]; 10 µM, inactivation 10 s): 4,859 ± 332 ms | τ 1 (%) relative amount of component (hNav1.5 [6]; 10 µM, inactivation 500 ms): 86.2 ± 1.8% | τ 1 (recovery time constant) (hNav1.5 [6]; 10 µM, inactivation 500 ms): 4.7 ± 0.3 ms | τ 2 (recovery time constant) (hNav1.5 [6]; 10 µM, inactivation 500 ms): 1,259 ± 351 ms | IC50 (hNav1.5 [7]; Half-maximal effective concentrations (interaction with inactivated state), different experimental settings, abstract): 2 to 3 µM | Ki (hNav1.5 [7]; Ki (inactivated state), single experiment of Figure 6B, Eq. 6): 1.85 µM | Ki (hNav1.5 [7]; affinity for the inactivated state (Ki), calculated from Kapp by Eq. 6, holding potential around half maximal inactivation, N = 5): 1.59 ± 0.45 µM | IC50 (hNav1.5 [7]; apparent IC50 (IC50app), single experiment of Figure 6B, partly inactivated channels): 2.27 µM | higher affinity for the inactivated state compared to the resting state (hNav1.5 [7]; depending on the applied protocol): about 50 fold | Ki (hNav1.5 [8]): 2.57 µM | remaining current at the longest inactivation time (hNav1.5 [8]; 3 µM atomoxetine, control 70.0 ± 14.0%): 32.6 ± 9.8% | remaining current at the longest inactivation time (hNav1.5 [8]; 10 µM atomoxetine): 11.5 ± 8.0% | time constant of block development (hNav1.5 [8]; 10 µM atomoxetine, single exponential fit, normalized to control): 4.3 ± 0.1 s | kon (hNav1.5 [8]; read-out: rate constant for association (kon)): 18500 M⁻¹ s⁻¹ | koff (hNav1.5 [8]; read-out: rate constant for dissociation (koff)): 0.047 s⁻¹ | IC50 (hNav1.5 [9]; half maximal effective concentration (Kr, IC50 at −140 mV; affinity for the resting state), drug preapplied 30 s): ~120 µM and 120 µM and 119 µM | Hill coefficient (hNav1.5 [9]; tonic block): 1.47 ± 0.06
